Experimental data: PMC9394307, “Discovery of Putative Dual Inhibitor of Tubulin and EGFR by Phenotypic Approach on LASSBio-1586 Homologs” (Pharmaceuticals, 2022)
Like-named read-outs stand apart in the source and are kept apart here.

Columns and labels:
[1] = system: EGFR in PC-9 cell line (EGFR^L858R); test: Guava Muse EGFR-RTK Activation Dual Detection Kit, flow cytometry; assay type: cell-based, human
Method: (§1) Flow cytometry was applied to help elucidate the mechanism of action of the studied compounds, both to verify the cell cycle phase and to verify the action on EGFR protein kinase.
(§2) The anti-tubulin effect was evaluated by seeding H1975, H292 and PC-9 into 6-well plates at a density of 2 × 10^5 per well. The cells were treated with the selected compounds for 72 h. Cells were harvested and stained according to the protocols of The Guava Muse® Cell Cycle Kit (MCH100106) to quantitatively measure the percentage of cells in the G2/M phases of the cell cycle and the EGFR-RTK Activation Dual Detection Kit (MCH200102) (Luminex®) to measure EGFR phosphorylation in relation to total EGFR expression in the cell population, according to the manufacturer’s instructions for use in test kits using a Guava Muse® Cell Analyzer (Luminex®). Each experiment was performed at least three times independently.

[2] = system: H1975 cells; test: Immunofluorescence of β-tubulin / microtubules; assay type: cell-based, human; settings: H1975, 48 h; CA-4 0.3 µM, vincristine 0.5 µM, taxol 0.1 µM, LASSBio-1586 10 µM, LASSBio-1735 0.5 µM, LASSBio-2070 4.5 µM, LASSBio-2074 20 µM
Method: Antitubulin agents have been broadly classified into destabilizing or stabilizing agents, based on their interference with the dynamic balance of polymerization or depolymerization of microtubules. […] CA-4 (1, 0.3 µM), vincristine (0.5 µM) and taxol (0.1 µM) were used as standard controls.
After incubation, cells were rinsed with PBS and fixed with 4% paraformaldehyde in PBS for 10 min at room temperature. They were then permeabilized with 0.5% Triton-X 100 in PBS 3 times for 10 min. The same solution was used for all subsequent washing steps. Cells were incubated with an anti-beta-tubulin antibody for 1 h at 37 °C. After incubation, cells were washed for 30 min and incubated with Alexa Fluor® 488, conjugated secondary antibody for 1 h at 37 °C, and nuclei were labeled with DAPI (0.1 mg/mL in 0.9% NaCl).
Live cultured cells grown in coverslips were mounted in Prolong Gold solution (Molecular Probes, USA) and were imaged on a Leica TCS SPE confocal microscope (Leica Microsystems, Germany) using 63x 1.3 N.A. oil immersion and the images acquired by the LAS X software. Cell morphology, focusing on the microtubules was analyzed, qualitatively, using the public domain NIH ImageJ Program (developed at the National Institutes of the USA Health and available on the internet at http://imagej.nih.gov/ij/ (accessed on 1 September 2021).

[3] = system: HL-60; test: MTT cell viability assay, HL-60; assay type: cell-based, human; settings: Homo sapiens, read-out: CC50 (µM) (CI) HL-60
Method: (§3) The cytotoxic activity of compounds 3–13 was determined based on an MTT assay against different human tumor cell lines, using LASSBio-1586 (2), LASSBio-1735 (3), CA-4 (1) and pelitinib as standards (Table 2). To determine the cytotoxic selectivity index, compounds were also evaluated toward human lymphocytes (Table 3).
(§4) The target compounds were tested (0.0001–100 µM) for cytotoxic activity against selected human cancer cell lines, such as HL-60 (acute promyelocytic leukemia), MCF-7 (mammary adenocarcinoma), PC-3 (prostate adenocarcinoma), H1975 (non-small cell lung cancer—EGFR^L858R+T790M), PC-9 (non-small cell lung cancer—EGFR^L858R) H292 (mucoepidermoid pulmonary carcinoma—EGFR wild type), LoVo (colorectal adenocarcinoma—EGFRwild type) and GM16000 (lymphocyte). All the human cancer cell lines were purchased from Cell Bank of Rio de Janeiro—BCRJ. They were cultured in RPMI 1640 medium with 10% (v/v) FBS, 2 mM glutamine, at 37 °C in a humidified incubator containing 5% CO2.
(§5) The cytotoxicity of the compounds was evaluated by the MTT assay. […] For lymphocytic lines, a density of 0.3 × 10^6 cells/mL was used. Afterwards they were treated with varying concentrations of the target compounds 2–12 (0.0001–100 µM), CA-4 (1) and pelitinib at 37 °C, in triplicate. The medium was incubated with 20 μL of 5 mg/mL MTT solution for 3 h in a humidified incubator containing 5% CO2 [11].
(§6) The purple-colored formazan crystals formed in the wells were dissolved in DMSO and their absorbance was measured at 595 nm with a microplate reader (SpectraMax M5, Molecular Devices).

[4] = system: PC-3; test: MTT cell viability assay, PC-3; assay type: cell-based; settings: Homo sapiens, PC-3, 72 h, read-out: CC50 (µM) (CI) PC-3
Method: as §3, §4
(§7) The cytotoxicity of the compounds was evaluated by the MTT assay. The cell lines were cultured in 96 well plates for 72 h with a density of 0.1 × 10^5 cells/mL to 0.7 × 10^5 cells/mL to adherent cell lines. For lymphocytic lines, a density of 0.3 × 10^6 cells/mL was used. Afterwards they were treated with varying concentrations of the target compounds 2–12 (0.0001–100 µM), CA-4 (1) and pelitinib at 37 °C, in triplicate. The medium was incubated with 20 μL of 5 mg/mL MTT solution for 3 h in a humidified incubator containing 5% CO2 [11].
as §6

[5] = system: H292; test: MTT cell viability assay, H292; assay type: cell-based, human; settings: Homo sapiens, read-out: CC50 (µM) (CI) H292
Method: as §3, §4, §5, §6

[6] = system: H1975; test: MTT cell viability assay, H1975; assay type: cell-based, human; settings: Homo sapiens, read-out: CC50 (µM) (CI) H1975
Method: as §3, §4, §5, §6

[7] = MTT cell viability assay, GM16000 lymphocytes; assay type: cell-based; settings: human lymphocytes, value (95% CI)
[8] = system: PC-9; test: MTT cell viability assay, PC-9; assay type: cell-based, human; settings: Homo sapiens, read-out: CC50 (µM) (CI) PC-9
Method: as §3, §4, §5, §6

[9] = system: MCF-7; test: MTT cell viability assay, MCF-7; assay type: cell-based, human; settings: Homo sapiens, MCF7, 72 h, read-out: CC50 (µM) (CI) MCF-7
Method: as §3, §4, §7, §6

[10] = system: LoVo; test: MTT cell viability assay, LoVo; assay type: cell-based; settings: Homo sapiens, read-out: CC50 (µM) (CI) LoVo
Method: as §3, §4, §7, §6

[11] = system: H1975 cells; test: Cell cycle analysis by flow cytometry (Guava Muse Cell Cycle Kit); assay type: cell-based, human; settings: H1975, 48 h of treatment; CA-4 0.04 µM, LASSBio-1586 2.0 µM, LASSBio-1735 0.08 µM, LASSBio-2070 3.0 µM, LASSBio-2074 1.5 µM; vs DMSO 0.1%
Method: Changes in the cell cycle are important aspect in tumorigenesis. Therefore, the identification of the steps related to inhibition of cell multiplication is an important process during the discovery of new antitumoral drug candidates. […] Flow cytometry was used for cell cycle analysis to estimate the percentages of a cell population in the different phases of the cell cycle. The analysis was performed using the lung cancer cell line H1975 treated with CA-4 (1, 0.04 µM), LASSBio-1586 (2, 2.0 µM), LASSBio-1735 (3, 0.08 µM), LASSBio-2070 (10, 3.0 µM) and LASSBio-2074 (11, 1.5 µM).
as §1
as §2, with “The cells were treated with the selected compounds for 72 h.” left out

[12] = MTT cell viability assay, GM16000 lymphocytes; assay type: cell-based; settings: human lymphocytes, value (95% CI); remark: listed apart in the source
Method: as §3
To establish the cytotoxic selective index (SI) of LASSBio-1586 homologs, they were studied on human lymphocyte cell lines (GM16000), using the MTT assay. The SI was calculated by the ratio between the CC50 on tumor and non-tumor cell lines. Although there is no consensus, values of SI ≥ 10 is considered satisfactory to assign safety to a new cytotoxic agent. This value means that the compound is more than ten times more cytotoxic to the tumor cell line than to normal cell line.
as §4, §7, §6

With `C=CC(=O)Nc1cc(Nc2nccc(-c3cn(C)c4ccccc34)n2)c(OC)cc1N(C)CCN(C)C` [Osimertinib, reference compound] the “cells with Inactivated EGFR (EGFR inactivation index)” value [1] was 30%.
With `COc1ccc(/C=C\c2cc(OC)c(OC)c(OC)c2)cc1O` [CA-4 (1), Combretastatin A-4, reference compound] the “cell morphology after treatment” value [2] was “rounded shape”, the “effect on microtubules (stabilizing / destabilizing profile)” value [2] was “typical response of microtubule destabilizing agents” and the CC50 ([3]; HL-60, 48 h) was 1.3 µM. For the same molecule, the CC50 ([3]; HL-60, 72 h) was 0.077 µM, the CC50 [4] was 0.096 µM and the CC50 ([5]; NCI-H292, 48 h) was 0.091 µM. The CC50 ([5]; NCI-H292, 72 h) was 0.013 µM, the CC50 ([6]; NCI-H1975, 48 h) was 0.058 µM and the CC50 ([6]; NCI-H1975, 72 h) was 0.035 µM. For the same molecule, the CC50 at 48 h [7] was 0.016 µM, the CC50 ([8]; PC-9, 48 h) was 0.025 µM and the CC50 ([8]; PC-9, 72 h) was 0.01 µM. For the same molecule, the CC50 [9] was 8.58 µM, the CC50 ([10]; 48 h) was 0.179 µM and the CC50 ([10]; 72 h) was 0.039 µM. For the same molecule, the “cell cycle distribution (G0/G1, S, G2/M)” value [11] was “increased cells in phase G2/M” and the CC50 at 72 h [12] was 0.064 µM.
